From patent US7449459B2, “Inhibitors of soluble adenylate cyclase” (Bayer Schering Pharma AG, priority 2006, dated 2008)

Molecular target: soluble, sperm-specific adenylate cyclase (sAC) (Homo sapiens, UniProt Q96PN6)
Test: sAC-Assay (HTRF cAMP detection)
Type: biochemical
Settings: inhibition of the soluble adenylate cyclase
From the text: In a suitable buffer system, the soluble, sperm-specific adenylate cyclase catalyzes the reaction of adenosine triphosphate (ATP) to cyclic adenosine monophosphate (cAMP) and pyrophosphate. Free cAMP that is generated in this way is then used in a competitive detection process, in which the binding of a europium kryptate (Eu[K])-labeled anti-cAMP antibody (anti cAMP-Eu[K]-AK) to a cAMP-molecule-labeled, modified allophycocyanine-1 molecule (cAMP-XL665) is prevented. In the absence of exogenic cAMP, after excitation at 335 nm, it results in a fluorescence resonance energy transfer (FRET) between the anti cAMP-Eu[K]-AK (FRET-donor) and the cAMP-XL665 molecule (FRET-acceptor). This process is quantified at different times (time-resolved) based on the emission of FRET-acceptor XL665 (665 nm and 620 nm). A signal drop (measured as a wave ratio; calculation formula: [(E665 nm/E620 nm)×10000]) can be attributed to the presence of cAMP and thus to the activity of sAC.
First, 1.5 μl of the test substance (in 30% DMSO), only 30% DMSO in the solvent controls, is introduced per recess in a 384-hole test plate (polystyrene; 384, NV). […]
After an additional incubation of 90 minutes at room temperature, the HTRF result is measured either on the Packard Discovery or with the RubiStar HTRF measuring device (Delay: 50 μs; Integration time: 400 μs).

Chain of soluble, sperm-specific adenylate cyclase (sAC) (Q96PN6 whole entry): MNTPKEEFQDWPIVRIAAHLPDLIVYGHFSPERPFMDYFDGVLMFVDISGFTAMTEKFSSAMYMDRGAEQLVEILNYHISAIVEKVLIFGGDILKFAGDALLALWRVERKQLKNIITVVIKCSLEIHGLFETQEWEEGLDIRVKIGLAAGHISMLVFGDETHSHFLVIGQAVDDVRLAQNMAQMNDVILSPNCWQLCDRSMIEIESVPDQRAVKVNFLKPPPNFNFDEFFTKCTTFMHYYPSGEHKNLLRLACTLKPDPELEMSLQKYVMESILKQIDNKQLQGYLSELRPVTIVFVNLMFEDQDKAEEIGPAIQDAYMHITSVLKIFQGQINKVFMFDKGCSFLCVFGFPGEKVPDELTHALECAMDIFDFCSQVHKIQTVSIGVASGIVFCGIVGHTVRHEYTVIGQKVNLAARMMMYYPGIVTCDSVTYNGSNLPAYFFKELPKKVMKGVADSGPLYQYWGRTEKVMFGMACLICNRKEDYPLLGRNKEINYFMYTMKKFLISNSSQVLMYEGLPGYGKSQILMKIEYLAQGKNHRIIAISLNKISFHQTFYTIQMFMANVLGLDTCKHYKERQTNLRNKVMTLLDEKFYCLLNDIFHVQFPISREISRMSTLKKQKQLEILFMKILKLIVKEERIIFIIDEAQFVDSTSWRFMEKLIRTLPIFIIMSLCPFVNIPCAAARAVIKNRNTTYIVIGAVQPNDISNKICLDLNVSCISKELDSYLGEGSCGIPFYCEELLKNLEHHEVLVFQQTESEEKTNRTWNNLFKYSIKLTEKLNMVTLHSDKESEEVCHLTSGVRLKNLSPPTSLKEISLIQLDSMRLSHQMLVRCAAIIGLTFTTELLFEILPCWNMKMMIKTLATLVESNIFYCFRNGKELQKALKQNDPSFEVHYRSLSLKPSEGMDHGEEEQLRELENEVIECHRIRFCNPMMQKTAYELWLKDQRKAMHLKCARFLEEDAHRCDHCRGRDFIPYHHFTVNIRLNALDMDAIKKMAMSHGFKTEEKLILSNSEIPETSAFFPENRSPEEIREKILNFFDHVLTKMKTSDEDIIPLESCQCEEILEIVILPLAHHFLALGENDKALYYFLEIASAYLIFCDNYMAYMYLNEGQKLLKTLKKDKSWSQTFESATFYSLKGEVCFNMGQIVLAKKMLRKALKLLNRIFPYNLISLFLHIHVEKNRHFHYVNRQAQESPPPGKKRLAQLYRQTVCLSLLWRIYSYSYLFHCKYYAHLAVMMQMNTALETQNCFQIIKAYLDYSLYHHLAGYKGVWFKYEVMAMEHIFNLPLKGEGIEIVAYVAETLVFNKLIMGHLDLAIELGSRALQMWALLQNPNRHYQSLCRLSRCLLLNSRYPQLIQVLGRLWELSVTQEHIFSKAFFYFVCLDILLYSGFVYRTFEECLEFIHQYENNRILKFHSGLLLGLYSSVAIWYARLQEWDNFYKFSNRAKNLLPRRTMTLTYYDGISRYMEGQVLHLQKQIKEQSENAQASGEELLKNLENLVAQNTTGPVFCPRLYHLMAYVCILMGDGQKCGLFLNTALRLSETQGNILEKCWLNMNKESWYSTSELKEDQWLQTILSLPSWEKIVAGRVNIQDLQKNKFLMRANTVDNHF

IC50	Compound
3.5 µM	CC(C)(C)c1ccc(S(=O)(=O)Nc2ccc3[nH]c(/C=C/C(=O)NCCN4CCOCC4)c(-c4ccccc4)c3c2)cc1
4.4 µM	CC(O)CNC(=O)/C=C/c1[nH]c2ccc(NS(=O)(=O)c3ccc(C(C)(C)C)cc3)cc2c1-c1ccccc1 (racemic) [(±)-(E)-3-[5-(4-tert-Butyl-phenylsulfonylamino)-3-phenyl-1H-indol-2-yl]-N-(2-hydroxy-propyl)-acrylic acid amide]
